We go through ten compounds from patent US20110039795A1, “2'-O,3'-N-BRIDGED MACROLIDES” (priority 2008, published 2011).

SMILES strings stand for the structures.

The subject of this assay is CD1 mice. The assay is described as follows: Phorbol 12-myristate 13-acetate induced ear edema in CD1 mice. In kind it is in vivo. To be noted: Mus musculus, topical, 6 h; applied topically once in a dose 500 μg/ear; PMA induced ear edema. The procedure: Phorbol 12-Myristate 13-Acetate Induced Ear Edema in CD1 Mice
Male CD1 mice (Charles River, France) weighing 30-40 g are randomly grouped (n=8 in test group of which the untreated ear serves as negative control; 8 in positive control group which also serves as their own negative control group). Test compounds, as well as vehicle (Trans-phase Delivery system, containing benzyl alcohol 10%, acetone 40% and isopropanol 50%) (all from Kemika, Croatia), are administered topically to the internal surface of the left ear 30 minutes prior to administration of phorbol 12-myristate 13-acetate (PMA) (Sigma, USA). Test compounds are administered at a dose 500 μg in 15 μL per ear. 30 minutes later, 0.01% PMA solution in acetone is applied topically to the inner surface of the left ear of each animal in a volume of 12 μL per ear. During the treatment and challenge, animals are anesthetized with anesthesia by inhalation. 6 h following challenge, animals are euthanized by intraperitoneal thiopental injection (PLIVA, Croatia). For assessing the auricular edema, 8 mm discs are cut out of left and right auricular pinna and weighed. The degree of edema is calculated by subtracting the weight of 8 mm disc of the untreated ear from that of the treated contralateral ear. The inhibition of edema in the treated animals is expressed as percentage compared to control mice.

As usually defined, the inhibition in vivo is how much of the control response was suppressed. `CC[C@H]1OC(=O)[C@H](C)[C@@H](O[C@H]2C[C@@](C)(OC)[C@@H](O)[C@H](C)O2)[C@H](C)[C@@H](O[C@@H]2O[C@H](C)C[C@H]3[C@H]2OC(=Nc2cccc4ccccc24)N3C)[C@](C)(O)C[C@@H](C)CN(C)[C@H](C)[C@@H](O)[C@]1(C)O` (single isomer, unassigned) [Example 2, 2′-O,3′-N-(Carbonimidoyl)-3′-N-demethyl-9-deoxo-9a-methyl-N′-(1-naphthyl)-9a-aza-9a-homoerythromycin A]: the inhibition in vivo at 500 µg/ear is > 50%.
In the case of `CCN=C1O[C@H]2[C@H](O[C@@H]3[C@@H](C)[C@H](O[C@H]4C[C@@](C)(OC)[C@@H](O)[C@H](C)O4)[C@@H](C)C(=O)O[C@H](CC)[C@@](C)(O)[C@H](O)[C@@H](C)NC(=O)[C@H](C)C[C@@]3(C)OC)O[C@H](C)C[C@@H]2N1C` (single isomer, unassigned) [Example 15, 2′-O,3′-N-(Carbonimidoyl)-3′-N-demethyl-N′-ethyl-6-O-methyl-9a-aza-9a-homoerythromycin A] it was > 50%; in that of `CCN=C1O[C@H]2[C@H](O[C@@H]3[C@@H](C)[C@H](O[C@H]4C[C@@](C)(OC)[C@@H](O)[C@H](C)O4)[C@@H](C)C(=O)O[C@H](CC)[C@@](C)(O)[C@H](O)[C@@H](C)C(=O)[C@H](C)C[C@@]3(C)OC)O[C@H](C)C[C@@H]2N1C` (single isomer, unassigned) [Example 14, 2′-O,3′-N-(Carbonimidoyl)-3′-N-demethyl-N′-ethyl-6-O-methyl-erythromycin A], > 50%; in that of `CC[C@H]1OC(=O)[C@H](C)[C@@H](O[C@H]2C[C@@](C)(OC)[C@@H](O)[C@H](C)O2)[C@H](C)[C@@H](O[C@@H]2O[C@H](C)C[C@H]3[C@H]2OC(=NC(C)C)N3C)[C@](C)(OC)C[C@@H](C)C(=O)[C@H](C)[C@@H](O)[C@]1(C)O` (single isomer, unassigned) [Example 11, 2′-O,3′-N-(Carbonimidoyl)-3′-N-demethyl-N′-isopropyl-6-O-methyl-erythromycin A], > 50%.
In the case of `CC[C@H]1OC(=O)[C@H](C)[C@@H](O[C@H]2C[C@@](C)(OC)[C@@H](O)[C@H](C)O2)[C@H](C)[C@@H](O[C@@H]2O[C@H](C)C[C@H]3[C@H]2OC(=NC(C)C)N3C)[C@](C)(OC)C[C@@H](C)C(=O)N[C@H](C)[C@@H](O)[C@]1(C)O` (single isomer, unassigned) [Example 7, 2′-O,3′-N-(Carbonimidoyl)-3′-N-demethyl-N′-isopropyl-6-O-methyl-9a-aza-9a-homoerythromycin A], the inhibition in vivo at 500 µg/ear is > 50%.
Turning to `CC[C@H]1OC(=O)[C@H](C)[C@@H](O[C@H]2C[C@@](C)(OC)[C@@H](O)[C@H](C)O2)[C@H](C)[C@@H](O[C@@H]2O[C@H](C)C[C@H]3[C@H]2OC(=NCc2ccccc2)N3C)[C@](C)(O)C[C@@H](C)CN(C)[C@H](C)[C@@H](O)[C@]1(C)O` (single isomer, unassigned) [Example 1, N′-Benzyl-2′-O,3′-N-(carbonimidoyl)-3′-N-demethyl-9-deoxo-9a-methyl-9a-aza-9a-homoerythromycin A], the inhibition in vivo at 500 µg/ear was > 50%.
In the case of `CC[C@H]1OC(=O)[C@H](C)[C@@H](O[C@H]2C[C@@](C)(OC)[C@@H](O)[C@H](C)O2)[C@H](C)[C@@H](O[C@@H]2O[C@H](C)C[C@H]3[C@H]2O/C(=N/CCCN(CC)CC)N3C)[C@](C)(OC)C[C@@H](C)C(=O)[C@H](C)[C@@H](O)[C@]1(C)O` (single isomer, unassigned) [Example 12, 2′-O,3′-N-(Carbonimidoyl)-3′-N-demethyl-N′-[3-(diethylamino)propyl]-6-O-methyl-erythromycin A] it was > 50%; in that of `CC[C@H]1OC(=O)[C@H](C)[C@@H](O[C@H]2C[C@@](C)(OC)[C@@H](O)[C@H](C)O2)[C@H](C)[C@@H](O[C@@H]2O[C@H](C)C[C@H]3[C@H]2OC(=NCCCN(CC)CC)N3C)[C@](C)(OC)C[C@@H](C)C(=O)N[C@H](C)[C@@H](O)[C@]1(C)O` (single isomer, unassigned) [Example 8, 2′-O,3′-N-(Carbonimidoyl)-3′-N-demethyl-N′-[3-(diethylamino)propyl]-6-O-methyl-9a-aza-9a-homoerythromycin A], > 50%.
In the case of `CC[C@H]1OC(=O)[C@H](C)[C@@H](O[C@H]2C[C@@](C)(OC)[C@@H](O)[C@H](C)O2)[C@H](C)[C@@H](O[C@@H]2O[C@H](C)C[C@H]3[C@H]2OC(=NC(C)C)N3C)[C@](C)(O)C[C@@H](C)CN(C)[C@H](C)[C@@H](O)[C@]1(C)O` (single isomer, unassigned) [Example 3, 2′-O,3′-N-(Carbonimidoyl)-3′-N-demethyl-9-deoxo-N′-isopropyl-9a-methyl-9a-aza-9a-homoerythromycin A] it was > 50%; in that of `CC[C@H]1OC(=O)[C@H](C)[C@@H](O[C@H]2C[C@@](C)(OC)[C@@H](O)[C@H](C)O2)[C@H](C)[C@@H](O[C@@H]2O[C@H](C)C[C@H]3[C@H]2OC(=NC)N3C)[C@](C)(OC)C[C@@H](C)C(=O)[C@H](C)[C@@H](O)[C@]1(C)O` (single isomer, unassigned) [Example 13, 2′-O,3′-N-(Carbonimidoyl)-3′-N-demethyl-N′-methyl-6-O-methyl-erythromycin A], > 50%.
